The source made the active and inactive calls.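 The calls were made as follows: active = compounds giving half or more protection of infected cells from virus-caused growth loss, again on retest; inactive = the rest.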
Test system: CEM cells HIV-1 protection, formazan growth assay
Assay: NCI AIDS Antiviral Assay
Details: for IC50: measured here: growth of uninfected CEM cells
Outline: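 Protection of CEM cells against HIV-1 measured as cell growth via soluble formazan read-out, with five concentrations tested on both infected and uninfected cells; failure to protect may reflect toxicity.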

Compound	EC50	IC50	outcome
CCOP(=O)(CC(=O)NC(C(N)=O)C(C)C)OCC (stereo not drawn)	> 100 µM	52.5 µM	
N#C/C(N)=C(\C#N)NC=NCc1ccccc1	> 200 µM	> 200 µM	
N#C/C(=C\c1ccc(Br)cc1)c1nc(-c2cc3ccccc3oc2=O)cs1	83.2 µM	> 100 µM	
N#CC(=N)c1ncn(-c2ccccc2N)c1N	> 200 µM	> 200 µM	
NC1=C(O)c2ccccc2C(=O)C1=O			inactive
CC1=C(C(=O)Nc2ccccc2)C(c2ccc3c(c2)OCO3)C(C(=O)Nc2ccccc2)=C(C)N1	> 11.2 µM	> 11.2 µM	
CN(C)CCNC(=O)c1cc(NC(=O)c2cc(NC(=O)CC/C=C3/[C@@H]4CC[C@H]3N=N4)cn2C)cn1C	> 200 µM	> 200 µM	
COc1cccc(NC(=O)CC(=O)N2N=C(N(CCC#N)c3ccccc3C)CC2c2ccccc2)c1 (stereo not drawn)	> 501 µM	> 501 µM	
C=C(c1ccccc1)[P+](c1ccccc1)(c1ccccc1)c1ccccc1	> 20 µM	0.219 µM	
Fc1cc(F)c(F)c(S)c1F			active
CN(C)CCCNc1ccnc2cc([N+](=O)[O-])ccc12	> 200 µM	12.9 µM	
NC(=O)CCC(NCc1c2ccccc2[n+]([O-])c2ccccc12)C(=O)O (stereo not drawn)			inactive
COc1ccc2nc3ccc(OC)cc3c(S(=O)Cc3ccc([N+](=O)[O-])cc3)c2c1 (stereo not drawn)	> 200 µM	3.24 µM	
COc1cc(C(=O)Nc2nnc(S(N)(=O)=O)s2)cc(OC)c1OC	> 200 µM	> 200 µM	
Cc1ccc(S(=O)(=O)Nn2c(O)c(C#N)c(-c3ccc(Cl)cc3)c(C#N)c2=O)cc1	> 200 µM	> 200 µM	
Cc1ccc(NC(=S)N/C=C(\c2ccccc2)S(=O)Cc2ccccc2)c(C)c1 (stereo not drawn)	> 200 µM	93.3 µM	
Clc1ccc2c(c1)C1C(CO2)C(c2ccccc2)=NN1c1ccccc1 (stereo not drawn)	> 27.5 µM	> 27.5 µM	
COc1cc2ccc1OCc1cccc(n1)COc1ccc(cc1OC)C=NCCNCCNCCN=C2	> 200 µM	110 µM	
O=C(NNC(=S)Nc1cccc(Cl)c1)c1cc(-c2ccccc2)nc2ccccc12	> 200 µM	12 µM	
CCNC(=S)N/N=C(/C)c1cccc(/C(C)=N\NC(=S)NCC)n1	> 200 µM	2.19 µM	
CCOP(=O)(OCC)/C(C#N)=C/c1cc(OC)ccc1OC	> 398 µM	24 µM	

Compound	EC50	IC50	outcome
CCCNC(=S)/N=C/c1c(O)c2ccccc2[nH]c1=O	> 200 µM	> 200 µM	
CC(=O)OCC1OC(n2c3c(c(-c4ccc(Cl)cc4)c(C#N)c2=S)CCCC3)C(OC(C)=O)C(OC(C)=O)C1OC(C)=O (stereo not drawn)	> 200 µM	26.3 µM	
C/C=C1\CN(C)C2Cc3c([nH]c4ccccc34)[C@H](c3c(OC)ccc4c5c([nH]c34)C3(C(=O)OC)CC4CC(CC)C3N(CC5)C4)CC1C2C(=O)OC (stereo partly drawn)			inactive
O=[N+]([O-])c1ccc(-c2csc3nc(-c4ccccc4)nn23)cc1	> 200 µM	> 200 µM	
COc1cc2c(c3c1[C@@H](O)[C@H](C)[C@@H](C)O3)C=CC(C)(C)O2	> 200 µM	79.4 µM	
COc1ccc(C2(O)c3ccccc3C(=O)N(C)C2(O)c2ccc(OC)cc2)cc1 (stereo not drawn)	> 200 µM	37.2 µM	
O=C(O)c1ccsc1Cc1cccs1	> 200 µM	> 200 µM	
O=C1C2=C(Nc3cc([N+](=O)[O-])ccc3N2)OC1c1ccccc1 (stereo not drawn)	> 17 µM	> 17 µM	
CC(NC1=NCCO1)c1cccc([N+](=O)[O-])c1 (stereo not drawn)	> 200 µM	> 200 µM	
COc1cc(C)c(Br)c2ccc(Br)c(O)c12	> 200 µM	> 200 µM	
N=C(N)N=Nc1cc(O)c(NN=C(N)N)cc1O	> 200 µM	110 µM	
CCC(Cc1ccccc1)C1=NC(C)(C)CC(C)O1 (stereo not drawn)	> 200 µM	79.4 µM	
COc1cccc(C2c3cc4c(cc3OC(N3CCCCC3)C2C)OCO4)c1OC (stereo not drawn)	> 200 µM	1.7 µM	
O=c1[nH]n(Cc2ccccc2CCl)c2ccc([N+](=O)[O-])cc12	> 200 µM	38 µM	
Nc1nc2c(c(-c3ccccc3Cl)n1)COC/C2=C\c1ccccc1Cl			inactive
CCCCCCCCO/N=C\c1c2c(O)c3c(O)c(C)c4c(c3c1O)C(=O)C(C)(O/C=C\C(OC)C(C)C(OC(C)=O)C(C)C(O)C(C)C(O)C(C)/C=C\C=C(\C)C(=O)N2)O4 (stereo not drawn)	> 200 µM	3.89 µM	
O=C1Nc2ccc([N+](=O)[O-])c3c(C(=O)O)ccc1c23	> 200 µM	141 µM	
COC1[C@]2(O)C(=O)N3/C=C\C(C)(C)c4[nH]c5ccccc5c4/C=C\3C(=O)N2C23C(C)C(C)(C)N2c2ccccc2[C@]13O (stereo partly drawn)			inactive
O=[N+]([O-])c1nccn1CCCNc1c2ccccc2nc2ccccc12			inactive
CC1=NN(C(=O)CC(=O)Nc2cccc(C)c2)C(=O)C1N=Nc1ccc(S(=O)(=O)CCOS(=O)(=O)O)cc1 (stereo not drawn)	> 2 µM	1.26 µM	
CC(=O)OC1CCC2(C)C(=CCC3C2CCC2(C)C3CC3N(c4ccccc4)C32C(C)=O)C1 (stereo not drawn)	6.46 µM	20 µM	

Compound	EC50	IC50	outcome
CC(=O)N1C/C(=C\c2ccccc2)C(=O)/C(=C/c2ccccc2)C1			inactive
COC(=O)c1cc(C#N)[nH]c1-c1ccc(C)s1	> 200 µM	35.5 µM	
Clc1cccc(N2CCN(CCCN3CCc4c([nH]c5ccccc45)C3c3cccnc3)CC2)c1 (stereo not drawn)	> 5.37 µM	> 5.37 µM	
N#C/C(=C\c1cc(Cl)cc(Cl)c1O)c1nc2ccccc2[nH]1	> 200 µM	30.9 µM	
Cc1cccc(N(CC(=O)O)S(=O)(=O)c2ccccc2)c1			inactive
COc1cc2c3c(c1)nc(C)n3C(=O)C(c1ccccc1)S2 (stereo not drawn)			inactive
c1ccc2c(c1)CCN2CCN1CCc2ccccc21	> 200 µM	145 µM	
Cn1c(CCC2(C)Cc3ccccc3C(=O)O2)cc2ccccc2c1=O (stereo not drawn)	> 200 µM	36.3 µM	
O=CCCCCCOCc1ccccc1	> 200 µM	3.47 µM	
Cc1ccc(SSc2nnnn2C)cc1	> 200 µM	11 µM	
COC1=C(OC)C(=O)C2=C(OCCCO2)C1=O	> 389 µM	2 µM	
CC(C)(C)c1cc2c(O)c(c1)Cc1cc(C(C)(C)C)cc(c1O)Cc1cc(C(C)(C)C)cc(c1O)Cc1cc(C(C)(C)C)cc(c1O)C2	> 77.6 µM	> 77.6 µM	
CCC12C=CCN3CCC4(c5cc(C(c6ccccn6)c6cc7ccccc7n6C)c(OC)cc5N(C)C4C(O)(C(=O)OC)C1OC(C)=O)C32 (stereo not drawn)	> 10.7 µM	> 10.7 µM	
COc1cc(C=O)c(-c2cc3c(cc2C2(C)OCCS2)OCO3)c(OC)c1OC (stereo not drawn)	> 44.7 µM	2.51 µM	
C[C@H]1C[C@H]2[C@@H]3CCC4=CC(=O)C=C[C@]4(C)[C@@]3(F)[C@@H](O)C[C@]2(C)[C@H]1O			inactive
CCC[n+]1noc(N)n1	> 1510 µM	> 1510 µM	
CC(=O)NS(=O)(=O)c1ccc(NC(=O)c2ccccc2SC(=O)CCCC[n+]2ccccc2)cc1	1.78 µM	> 200 µM	
O=C(NC1=C(Cl)C(=O)c2ccccc2C1=O)C(=O)c1c(O)c2ccccc2oc1=O	> 117 µM	> 117 µM	
Cc1cc(S(=O)(=O)Nc2nnc3c(C(F)(F)F)cc(Cl)cn23)c(S)cc1Cl	166 µM	170 µM	
O=C1CCC(C2(O)c3ccccc3-c3ccccc32)C(=O)N1 (stereo not drawn)	> 123 µM	> 123 µM	
O=C(O)/C(Cl)=C(\Cl)Nc1cccc(C(F)(F)F)c1			inactive

Compound	EC50	IC50	outcome
C#CC(O)/C=C/C(O)CCCC(O)CC#CC(O)C#CCCCCC(O)/C=C/CCCC(O)/C=C/CCCCCCCCCCCCCC(O)C(O)C#CC(=O)O (stereo not drawn)	> 50.1 µM	28.8 µM	
O=C1CN(CCCO)CC(=O)N2Cc3ccccc3CN12	> 200 µM	> 200 µM	
O=C(CSCc1cc(S(=O)(=O)O)c2cccnc2c1O)Nc1ccc(/C=C/c2ccc(NC(=O)CSCc3cc(S(=O)(=O)O)c4cccnc4c3O)cc2S(=O)(=O)O)c(S(=O)(=O)O)c1	> 200 µM	> 200 µM	
CC(C)(NC(=O)OCc1ccccc1)C(=O)OC(=O)C(C)(C)NC(=O)OCc1ccccc1	> 200 µM	> 200 µM	
COC1CCC(C(C)O)OO1 (stereo not drawn)	> 200 µM	33.9 µM	
COc1c2cc([N+](=O)[O-])cc1CNC(=O)CN1CCOCCOCCN(CCOCCOCC1)CC(=O)NC2	> 100 µM	> 100 µM	
Cc1ccc(-c2csc(=Nc3c(C)n(C)n(-c4ccccc4)c3=O)n2CCO)cc1	> 200 µM	79.4 µM	
CC1CCCC(C)N1Cc1cccnc1 (stereo not drawn)			inactive
Cc1ccc(NC(=O)CC2C(=O)Nc3ccccc3S2(=O)=O)cc1C (stereo not drawn)	> 10.5 µM	> 10.5 µM	
CC(=O)OC1(C#N)CC2OC1C1C2N1C(=O)OC(C)(C)C (stereo not drawn)	> 427 µM	> 427 µM	
CC(C)C(CCOS(=O)(=O)O)CCC(C)[C@H]1[C@@H](O)C(O)C2[C@]3(O)C[C@@H](O)C4(O)C[C@@H](O)CC[C@]4(C)C3CC[C@@]21C (stereo partly drawn)			inactive
Cc1c(C)c2ccc(OC(C)C(=O)O)cc2oc1=O (stereo not drawn)			inactive
CC1OC(OC2C(O[C@H]3CC[C@@]4(C)C(=CC[C@H]5[C@@H]6C[C@@H]7O[C@]8(CC[C@@H](C)CO8)[C@@H](C)[C@@H]7[C@@]6(C)CC[C@@H]54)C3)OC(CO)C(O)C2OC2OC(CO)C(O)C(O)C2O)C(O)C(O)C1O (stereo partly drawn)	> 200 µM	1.17 µM	
NCC1OC(OC2C(CO)OC(OC3C(O)C(N)CC(N)C3OC3OC(CO)C(O)C(O)C3N)C2O)C(N)C(O)C1O (stereo not drawn)			inactive
O=c1n(CCCN2CCOCC2)nc2n1-c1ccc3ccccc3c1SC2	> 200 µM	33.9 µM	
O=C1c2cccc3c([N+](=O)[O-])ccc(c23)C(=O)N1CC1CCCO1 (stereo not drawn)	> 2 µM	0.195 µM	
CC(=O)/C(=C/n1c(=S)[nH]c2ccccc21)C(=O)Nc1ccccc1C	> 200 µM	> 200 µM	
COC(=O)/C=C(/Sc1nc(Cl)c(Cl)nc1N)C(=O)OC (tested in a mixture with another compound)	> 200 µM	2.45 µM	
S=C1N(c2ccc(Cl)cc2)C2=C(N=Nc3ccccc3)C(=Nc3ccccc3S2)N1c1ccccn1	> 50.1 µM	10 µM	
